One series concerns the target α-amylase. The experiment in a line: α-amylase inhibitory activity via analysis of reducing sugars. The series is classed as biochemical. The following applies: 1% starch substrate, DNS reagent, pH 4.5, 37° C., twenty minutes. As for the experimental part:
(§1) α-amylase, a kind of glycosidase enzymes, was used to identify glycosidase inhibitory activities of the chalcone derivatives of the present invention. Using 1% starch as substrate, α-amylase activities were measured by measuring the amounts in that α-amylases hydrolyzed the substrates after adding DNS (1% dinitrosalicylic acid, 12% potassium sodium tartrate in 0.4 M NaOH), a color reagent (Bioorg. Med. Chem. Lett., 2002, 12, 2335-2339). 1% starch as substrate was dissolved in acetate buffer (0.05 M, pH 4.5) in test tubes. After preprocessing at 37° C. for ten minutes, the resultant solutions were quantified as 100 μl in tubes. α-amylases of 0.25 unit/ml, prepared with the acetate buffer, were quantified as 100 μl. Subsequently, the chalcone derivatives prepared in Examples 2, 5, 6, 8, 9, 10, 11 and 12 in accordance with the present invention were dissolved in 50% DMSO solvent and quantified as 50 μl, respectively. After reacting the samples quantified at 37° C. for twenty minutes, 300 μl of DNS, the color reagent, were added thereto. Next, the resultant solutions were reacted in boiled water for ten minutes and cooled to measure absorbance at 540 nm, thus obtaining amylase inhibitory rates via equation 1 above. Measured IC50 values of the chalcone derivatives prepared in Examples 2, 5, 6, 8, 9, 10, 11 and 12 for α-amylases were depicted in table 3.

The target of another series is β-amylase. Kind of series: β-amylase inhibitory activity via analysis of reducing sugars. Type of series: biochemical. The following applies: 1% starch substrate, DNS reagent, same manner as α-amylase test. On the procedure: as §1
β-amylase inhibitory activities were measured in the same manner as Experimental example 2 except for using β-amylases as glycosidase and the IC50 values were depicted in Table 3 above.

The subject of series [1] is B-16 melanoma. Kind of series: Melanin synthesis inhibitory activity in B-16 melanoma. Type of series: cell-based, mice. The note with it: Mus musculus, B16, DMEM with a-MSH and theophylline, read-out: IC50 melanin synthesis inhibition. On the procedure: To identify the melanin synthesis inhibitory activities of the chalcone derivatives of the present invention, whitening effects were measured using B-16 melanoma. 2 ml of B-16 melanoma, derived from black mice, was added to the respective wells in concentration of 2×10^4 cells/well on a 6 well plate using DMEM with 10% FBS and cultivated under the conditions of 5% CO2 and 37° C. for twenty four hours. Media were removed after the cultivation and the DMEM used was replaced with DMEM having 10% FBS, 0.2 mM a-MSH and 2 mM theophylline. Subsequently, appropriate amounts of the chalcone compounds of Examples 2 to 6, 8, 13, 14, 17 and 18 were diluted with the same media and added thereto, respectively, to be cultivated under the conditions of 5% CO2 and 37° C. until the cells grew above 80%. The media were removed after the cultivation and the resultant compounds were washed with PBS and processed with […] to collect cell pellets. Collected pellets were moved to 1.5 ml of Eppendorf tubes to be centrifuged at […] for ten minutes. Then, the pellets in which supernatants were removed were dried in an incubator of 60° C. for twenty four hours. Subsequently, 1N NaOH was added thereto to dissolve melanins in the cells. Dissolved melanins are diluted with appropriate amounts of PBS to measure absorbance at 490 nm, thus obtaining melanin inhibitory rates via Equation 1 above (T. Mosmann, J. Immunol. Methods, 1983, 65, 55; P. R. Gorden, J. Invest. Dermatol., 1989, 92, 565). As a comparative example, the same experiment was carried out using albutin.

In series [2] the test system is B-16 melanoma. The experiment in a line: Cytotoxicity in B-16 melanoma. The series is classed as cell-based, mice. The following applies: melanin test not performed because of cytotoxicity.

Results on 15 molecules are retold here after patent publication US7851654B2, “Chalcone derivatives, pharmaceutically acceptable salt, method for preparation and uses thereof” (Industry-Academic Cooperation Foundation Gyeongsang …, priority 2006, dated 2010).

One may read the IC50 as the concentration that gives 50% inhibition.

Take `CS(=O)(=O)Nc1ccc(C(=O)/C=C/c2ccc(O)cc2)cc1` [Example 6, 4′-(methanesulfonylamino)-4-hydroxychalcone]: the results for the IC50 against α-amylase, against β-amylase and in the series on B-16 melanoma [1] were 194 µM, 65 µM and 20.3 µM, respectively.
Regarding `O=C(/C=C/c1ccc(O)c(O)c1)c1ccc(NS(=O)(=O)c2ccc([N+](=O)[O-])cc2)cc1` [Example 10, 4′-(p-nitrobenzenesulfonylamino)-3,4-dihydroxychalcone], the half-maximal inhibitory concentration (IC50) against α-amylase came to 37.3 µM; at β-amylase, 201 µM.
Regarding `O=C(/C=C/c1ccc(O)cc1)c1ccc(NS(=O)(=O)c2ccccc2)cc1` [Example 3, 4′-benzenesulfonylamino-4-hydroxychalcone], the half-maximal inhibitory concentration (IC50) in the series with B-16 melanoma [1] came to 20.6 µM.
Regarding `OC[C@H]1O[C@@H](Oc2ccc(O)cc2)[C@H](O)[C@@H](O)[C@@H]1O` [Albutin, albutin, reference compound], the half-maximal inhibitory concentration (IC50) in the series with B-16 melanoma [1] turned out to be 92 µM.
The same measure, in the same setting: then `Cc1ccc(S(=O)(=O)Nc2cccc(C(=O)/C=C/c3ccc(O)cc3)c2)cc1` [Example 14, 3′-(p-toluenesulfonylamino)-4-hydroxychalcone], with 25.6 µM.
With `O=C(/C=C/c1ccc(O)c(O)c1)c1ccc(NS(=O)(=O)c2ccccc2)cc1` [Example 9, 4′-benzenesulfonylamino-3,4-dihydroxychalcone], the “IC50 α-amylase” value at α-amylase is listed as “NI (NI denotes the cases where the inhibitory rates were below 20% measured when the concentration of the chalcone derivatives was 200 μM or means that there were no inhibitory activities for α-, or β-amylases)”. Moreover, the half-inhibitory concentration (IC50) against β-amylase amounted to 206 µM.
In the case of `CS(=O)(=O)Nc1ccc(C(=O)/C=C/c2ccc(O)c(O)c2)cc1` [Example 12, 4′-(methanesulfonylamino)-3,4-dihydroxychalcone], the IC50 on α-amylase was 16.8 µM; against β-amylase it was 24.8 µM.
As for `O=C(/C=C/c1ccc(O)cc1)c1ccc(NS(=O)(=O)c2ccc(F)cc2)cc1` [Example 5, 4′-(p-fluorobenzenesulfonylamino)-4-hydroxychalcone], at α-amylase, the “IC50 α-amylase” value was “NI^a (NI denotes the cases where the inhibitory rates were below 20% measured when the concentration of the chalcone derivatives was 200 μM or means that there were no inhibitory activities for α-, or β-amylases)”. The half-maximal inhibitory concentration (IC50) on β-amylase worked out at 127 µM; with B-16 melanoma [1] it was 23.7 µM.
Consider `O=C(/C=C/c1ccc(O)cc1)c1ccccc1` [Example 17, 4-hydroxychalcone], for which the “cytotoxicity of the compounds” value with B-16 melanoma [2] was “ND (ND denotes the cases where the experiments on the melanin synthesis inhibitory activities in B-16 melanoma were not performed since the cytotoxicity of the compounds was shown as more than 50%)”.
Still for that read-out and setting: then `O=C(/C=C/c1ccc(O)cc1)c1ccc(NS(=O)(=O)c2ccc([N+](=O)[O-])cc2)cc1` [Example 4, 4′-(p-nitrobenzenesulfonylamino)-4-hydroxychalcone], with “ND^a (ND denotes the cases where the experiments on the melanin synthesis inhibitory activities in B-16 melanoma were not performed since the cytotoxicity of the compounds was shown as more than 50%)”.
For the molecule `Cc1ccc(S(=O)(=O)Nc2ccc(C(=O)/C=C/c3ccc(O)cc3)cc2)cc1` [Example 2, 4′-(p-toluenesulfonylamino)-4-hydroxychalcone], the half-maximal inhibitory concentration (IC50) stood at 87.8 µM at α-amylase, 247 µM against β-amylase and 14.8 µM in the series on B-16 melanoma [1].
As to `O=C(/C=C/c1ccc(O)c(O)c1)c1ccc(NS(=O)(=O)c2ccc(F)cc2)cc1` [Example 11, 4′-(p-fluorobenzenesulfonylamino)-3,4-dihydroxychalcone], the “IC50 α-amylase” value against α-amylase is reported as “NI (NI denotes the cases where the inhibitory rates were below 20% measured when the concentration of the chalcone derivatives was 200 μM or means that there were no inhibitory activities for α-, or β-amylases)”. For the same molecule, the “IC50 β-amylase” value on β-amylase was “NI (NI denotes the cases where the inhibitory rates were below 20% measured when the concentration of the chalcone derivatives was 200 μM or means that there were no inhibitory activities for α-, or β-amylases)”.
Regarding `O=C(/C=C/c1ccc(O)cc1)c1ccc(O)cc1` [Example 18, 4′,4-dihydroxychalcone], the “cytotoxicity of the compounds” value in the series with B-16 melanoma [2] is reported as “ND (ND denotes the cases where the experiments on the melanin synthesis inhibitory activities in B-16 melanoma were not performed since the cytotoxicity of the compounds was shown as more than 50%)”.
`Nc1ccc(C(=O)/C=C/c2ccc(O)cc2)cc1` [Example 8, 4′-amino-4-hydroxychalcone]: the IC50 amounted to 269 µM at α-amylase and 12.5 µM in the series with B-16 melanoma [1]. Besides, at β-amylase, the “IC50 β-amylase” value is listed as “NI (NI denotes the cases where the inhibitory rates were below 20% measured when the concentration of the chalcone derivatives was 200 μM or means that there were no inhibitory activities for α-, or β-amylases)”.
Regarding `Nc1cccc(C(=O)/C=C/c2ccc(O)cc2)c1` [Example 13, 3′-amino-4-hydroxychalcone], in the series on B-16 melanoma [2], the “cytotoxicity of the compounds” value was “ND (ND denotes the cases where the experiments on the melanin synthesis inhibitory activities in B-16 melanoma were not performed since the cytotoxicity of the compounds was shown as more than 50%)”.
